Earlier results as cited in US20170051350A1, “METHOD AND SYSTEM TO PREDICT RESPONSE TO TREATMENTS FOR MENTAL DISORDERS” (Pathway Genomics Corporation, priority 2013, published 2017).
Like-named read-outs stand apart in the source and are kept apart here.

Tests used:
HTR2C = biological target: T1, HTR2C (Homo sapiens, UniProt P28335); details: HTR2C rs3813929 T/C, T (outcome: reduced weight gain); cited from earlier work
T1 construct: endogenous in cells; host or cells: patients (in vivo)
T1 sequence (P28335 33-458): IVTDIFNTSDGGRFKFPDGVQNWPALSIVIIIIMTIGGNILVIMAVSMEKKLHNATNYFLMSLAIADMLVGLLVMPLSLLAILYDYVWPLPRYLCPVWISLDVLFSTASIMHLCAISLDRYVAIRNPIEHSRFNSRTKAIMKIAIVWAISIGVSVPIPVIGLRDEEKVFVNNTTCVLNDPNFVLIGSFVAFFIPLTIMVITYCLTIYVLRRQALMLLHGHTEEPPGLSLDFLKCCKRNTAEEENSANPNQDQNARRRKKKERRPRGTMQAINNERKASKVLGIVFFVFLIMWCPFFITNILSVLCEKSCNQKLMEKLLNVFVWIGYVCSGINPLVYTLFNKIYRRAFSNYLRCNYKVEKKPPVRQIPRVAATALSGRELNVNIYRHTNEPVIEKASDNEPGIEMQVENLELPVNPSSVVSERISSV

CYP2D6 = details: cited from earlier work
genes affecting efficacy = details: cited from earlier work; for depression improvement (Category): BDNF rs61888800, full wording: Depression may improve more than average, source PMID 20435227 Suppl Table 3a
HLA genotypes = details: cited from earlier work
[1] = test system: genes affecting adverse reactions; details: source PMID 20435227 Suppl Table 3c, cited from earlier work
[2] = CYP2D6 Intermediate Metabolizer

Q: For CN1CC2c3ccccc3Oc3ccc(Cl)cc3C2C1 (stereo not drawn) [Asenapine], which “risk of weight gain” value (HTR2C) is on record?
A: Patient has decreased risk of weight gain if treated with atypical antipsychotics, including asenapine (PMID 19636338,

Q: Which results are given for COc1ccc(C(CN(C)C)C2(O)CCCCC2)cc1 (stereo not drawn) [Venlafaxine]?
A: risk of adverse effects (CYP2D6; [2]): 10233212, 10877013), which may increase risk of adverse effects (PMID 17803873). Consider alternative medications,; levels of the active metabolite, O-desmethylvenlafaxine, at standard doses (CYP2D6; CYP2D6 Poor Metabolizer): decreased; risk of adverse effects (CYP2D6; CYP2D6 Poor Metabolizer): 18214456, 19593180, 21288052); therefore, the patient may have an increased risk of adverse effects at standard; plasma levels of the active metabolite, O-desmethylvenlafaxine, at standard doses (CYP2D6; CYP2D6 Ultrarapid Metabolizer): Patient's genotype is associated with increased plasma levels of the active metabolite, O-desmethylvenlafaxine, and

Q: What does the source list for CNCCCN1c2ccccc2CCc2ccccc21 [Desipramine]?
A: depression improvement (Category) (genes affecting efficacy): Depression may improve; plasma concentrations (drug, or drug combined with its active metabolite) (CYP2D6; [2]): Patient may have increased plasma concentrations of desipramine at standard doses (PMID 9049581, PMID 3816019,; plasma concentrations (drug, or drug combined with its active metabolite) (CYP2D6; CYP2D6 Poor Metabolizer): Patient's genotype is associated with increased plasma concentrations of desipramine at standard doses (PMID; risk of adverse effects (CYP2D6; CYP2D6 Poor Metabolizer): 9049581, PMID 3816019, PMID 10895986), which may increase risk of adverse effects.

Q: For Fc1ccc([C@@H]2CCNC[C@H]2COc2ccc3c(c2)OCO3)cc1 [Paroxetine], which “risk of adverse effects” value (CYP2D6; [2]) is on record?
A: paroxetine, which may increase risk of sexual dysfunction (PMID 8880055, 12870705, 1531950).

Q: And the “risk of adverse effects” value (CYP2D6; CYP2D6 Poor Metabolizer)?
A: Patient may have increased risk of drug-drug interactions [PMID 16476833] and sexual dysfunction [PMID 12870705].

Q: With c1ccc([C@H]2CN3CCSC3=N2)cc1 [levamisole] as the compound, how does the agranulocytosis (HLA genotypes; HLA-B27) read?
A: associated

Q: Which “risk of weight gain” value (HTR2C) does the source give for O=C1Cc2cc(CCN3CCN(c4nsc5ccccc45)CC3)c(Cl)cc2N1 [Ziprasidone] here?
A: Patient has decreased risk of weight gain if treated with atypical antipsychotics, including ziprasidone (PMID

Q: Which toxicity (HLA genotypes; HLA-DR3) does the source give for CC(C)(S)[C@@H](N)C(=O)O [penicillamine] here?
A: associated

Q: With Cc1nc2n(c(=O)c1CCN1CCC(c3noc4cc(F)ccc34)CC1)CCCC2O (stereo not drawn) [Paliperidone] as the compound, how does the “risk of weight gain” value (HTR2C) read?
A: Patient has decreased risk of weight gain if treated with atypical antipsychotics, including paliperidone (PMID

Q: For O=C(CCCN1CCC(O)(c2ccc(Cl)cc2)CC1)c1ccc(F)cc1 [Haloperidol], which “plasma concentrations (drug, or drug combined with its active metabolite)” value (CYP2D6; [2]) is on record?
A: Patient may have increased plasma concentrations of haloperidol (PMID 12386646, 10519444, 10096261).

Q: And the “plasma concentrations of reduced haloperidol” value (CYP2D6; CYP2D6 Poor Metabolizer)?
A: fluphenazine, quetiapine, olanzapine or clozapine (PMID 21412232). Patient's genotype is associated with increased

Q: What about the “risk of adverse effects” value (CYP2D6; CYP2D6 Poor Metabolizer) of the same compound?
A: Patient has increased risk of extrapyramidal symptoms and other adverse effects. Consider reducing the dose or

Q: What about the “risk of extrapyramidal symptoms” value (CYP2D6; CYP2D6 Ultrarapid metabolizer, in one study) of the same compound?
A: In one study, individuals with this patient's CYP2D6 metabolizer status had a slightly increased risk of extrapyramidal

Q: Which SJS (HLA genotypes; HLA-B59) does the source give for CC(=O)/N=c1/sc(S(N)(=O)=O)nn1C [methazolamide] here?
A: associated

Q: What does the source list for Cc1cc2c(s1)Nc1ccccc1N=C2N1CCN(C)CC1 [Olanzapine]?
A: Olanzapine, weight gain (Category) ([1]; ADRB3 rs4994, ADRB3:Trp64Arg): Less likely to gain weight; Olanzapine, weight gain (Category) ([1]; GNB3 rs5443, GNB3:825C > T): More likely to gain weight; Olanzapine, weight gain (Category) ([1]; HTR2A rs6313, HTR2A:T102C): More likely to gain weight; Olanzapine, weight gain (Category) ([1]; HTR2C rs6318, HTR2C:Cys23Ser): More likely to gain weight; Olanzapine, weight gain (Category) ([1]; HTR2C rs518147, HTR2C: −697G/C): Less likely to gain weight

Q: Which hypersensitivity (HLA genotypes; HLA-B*5701) does the source give for Nc1nc(NC2CC2)c2ncn([C@H]3C=C[C@@H](CO)C3)c2n1 [abacavir] here?
A: associated

Q: What does the source list for CN1CCN2c3ncccc3Cc3ccccc3C2C1 (stereo not drawn) [Mirtazapine]?
A: plasma concentrations (drug, or drug combined with its active metabolite) (CYP2D6; [2]): Patient may have increased plasma concentrations of mirtazapine, though it is unclear if increased plasma; plasma concentrations (drug, or drug combined with its active metabolite) (CYP2D6; CYP2D6 Poor Metabolizer): Patient may have increased plasma concentrations of mirtazapine at standard doses, though it is unclear if increased

Q: Which results are given for CN(C)CCC=C1c2ccccc2COc2ccccc21 [Doxepin]?
A: plasma concentrations (drug, or drug combined with its active metabolite) (CYP2D6; [2]): may have increased; risk of adverse effects (CYP2D6; [2]): may increase the risk; plasma concentrations (drug, or drug combined with its active metabolite) (CYP2D6; CYP2D6 Poor Metabolizer): increased; risk of adverse effects (CYP2D6; CYP2D6 Poor Metabolizer): may increase the risk; plasma concentrations (drug, or drug combined with its active metabolite) (CYP2D6; CYP2D6 Ultrarapid Metabolizer): Patient's genotype is associated with decreased plasma concentrations of doxepin. Consider alternative medications,

Q: With OCCN1CCN(CCCN2c3ccccc3Sc3ccc(Cl)cc32)CC1 [Perphenazine] as the compound, how does the “plasma concentrations (drug, or drug combined with its active metabolite)” value (CYP2D6; [2]) read?
A: Patient's genotype is associated with increased plasma concentrations of perphenazine (PMID 17429316, 8612387),

Q: What about the “plasma concentrations (drug, or drug combined with its active metabolite)” value (CYP2D6; CYP2D6 Poor Metabolizer) of the same compound?
A: Patient's genotype is associated with increased plasma concentrations of perphenazine (PMID 17429316, 8612387,

Q: What about the “risk of adverse effects” value (CYP2D6; CYP2D6 Poor Metabolizer) of the same compound?
A: 8689810), which may increase risk of adverse effects (FDA approved perphenazine drug label, PMID 9333110,

Q: What about the “plasma concentrations (drug, or drug combined with its active metabolite)” value (CYP2D6; CYP2D6 Ultrarapid Metabolizer) of the same compound?
A: Patient's genotype is associated with decreased plasma concentrations of perphenazine.

Q: For OCCOCCN1CCN(C2=Nc3ccccc3Sc3ccccc32)CC1 [Quetiapine], which “risk of weight gain” value (HTR2C) is on record?
A: Patient has decreased risk of weight gain if treated with atypical antipsychotics, including quetiapine (PMID 19636338,

Q: With Oc1ncnc2[nH]ncc12 [allopurinol] as the compound, how does the drug eruption (HLA genotypes; HLA-Aw33, B17/Bw58) read?
A: associated

Q: And the “severe cutaneous adverse reactions” value (HLA genotypes; HLA-B*5801)?
A: associated

Q: For OCCN1CCN(CC/C=C2/c3ccccc3Sc3ccc(Cl)cc32)CC1 [Zuclopenthixol], which “plasma concentrations (drug, or drug combined with its active metabolite)” value (CYP2D6; [2]) is on record?
A: Patient may have increased plasma concentrations of zuclopenthixol (PMID 1927573, 8946657, 12107620, 8612387,

Q: What about the “risk of adverse effects” value (CYP2D6; [2]) of the same compound?
A: 20946203), which may increase risk of adverse effects (PMID 20175668, 12107620). Consider reducing the dose by

Q: What about the “plasma concentrations (drug, or drug combined with its active metabolite)” value (CYP2D6; CYP2D6 Poor Metabolizer) of the same compound?
A: Patient's genotype is associated with increased plasma concentrations of zuclopenthixol (PMID 1927573, 8946657,

Q: What about the “risk of adverse effects” value (CYP2D6; CYP2D6 Poor Metabolizer) of the same compound?
A: 12107620, 8612387, 20946203), which may increase risk of adverse effects (PMID 20175668, 12107620). Consider

Q: With CNCC[C@H](Oc1cccc2ccccc12)c1cccs1 [Duloxetine] as the compound, how does the “plasma concentrations (drug, or drug combined with its active metabolite)” value (CYP2D6; [2]) read?
A: Patient may have increased plasma concentrations of duloxetine at standard doses (PMID 17380590, 17713974).

Q: And the “plasma concentrations (drug, or drug combined with its active metabolite)” value (CYP2D6; CYP2D6 Poor Metabolizer)?
A: Patient may have increased plasma concentrations of duloxetine at standard doses (PMID 17380590, 17713974).

Q: With CNCCC=C1c2ccccc2CCc2ccccc21 [Nortriptyline] as the compound, how does the “Escitalopram, Nortriptyline, response (Category)” value (genes affecting efficacy; NR3C1 rs10482633, full wording: Depression may not respond as well, source PMID 20435227 Suppl Table 3b) read?
A: Depression may not respond

Q: What about the “plasma concentrations (drug, or drug combined with its active metabolite)” value (CYP2D6; [2]) of the same compound?
A: Patient's genotype is associated with increased plasma concentrations of nortriptyline at standard doses (PMID

Q: What about the “plasma concentrations (drug, or drug combined with its active metabolite)” value (CYP2D6; CYP2D6 Poor Metabolizer) of the same compound?
A: Patient's genotype is associated with increased plasma concentrations of nortriptyline at standard doses (PMID

Q: What about the “plasma concentrations (drug, or drug combined with its active metabolite)” value (CYP2D6; CYP2D6 Ultrarapid Metabolizer) of the same compound?
A: Patient's genotype is associated with decreased plasma concentrations of nortriptyline at standard doses (PMID

Q: Which SLE (HLA genotypes; HLA-DR4) does the source give for NNc1nncc2ccccc12 [hydralazine] here?
A: associated

Q: Which “plasma concentrations (drug, or drug combined with its active metabolite)” value (CYP2D6; [2]) does the source give for CN(C)CCC=C1c2ccccc2CCc2ccccc21 [Amitriptyline] here?
A: may have increased

Q: And the “risk of adverse effects” value (CYP2D6; [2])?
A: increased risk

Q: And the “plasma concentrations (drug, or drug combined with its active metabolite)” value (CYP2D6; CYP2D6 Poor Metabolizer)?
A: increased plasma

Q: And the “risk of adverse effects” value (CYP2D6; CYP2D6 Poor Metabolizer)?
A: increased risk

Q: For CC(CN(C)C)CN1c2ccccc2CCc2ccccc21 (stereo not drawn) [Trimipramine], which “plasma concentrations (drug, or drug combined with its active metabolite)” value (CYP2D6; [2]) is on record?
A: Patient's genotype is associated with increased plasma concentrations of trimipramine and desmethyltrimipramine

Q: And the “plasma concentrations (drug, or drug combined with its active metabolite)” value (CYP2D6; CYP2D6 Poor Metabolizer)?
A: Patient's genotype is associated with increased plasma concentrations of trimipramine and desmethyltrimipramine

Q: What about the “risk of adverse effects” value (CYP2D6; CYP2D6 Poor Metabolizer) of the same compound?
A: patient may be at increased risk of adverse effects, such as sedation (PMID 14646691).

Q: What about the “plasma concentrations (drug, or drug combined with its active metabolite)” value (CYP2D6; CYP2D6 Ultrarapid Metabolizer) of the same compound?
A: decreased

Q: And the “risk of therapeutic failure” value (CYP2D6; CYP2D6 Ultrarapid Metabolizer)?
A: increased risk

Q: For Cc1c(N(C)CS(=O)(=O)[O-])c(=O)n(-c2ccccc2)n1C.[Na+] [dipyrone], which agranulocytosis (HLA genotypes; HLA-A24, B7, DQwI) is on record?
A: associated

Q: Which “risk of weight gain” value (HTR2C) does the source give for O=C1[C@@H]2[C@H]3CC[C@H](C3)[C@@H]2C(=O)N1C[C@@H]1CCCC[C@H]1CN1CCN(c2nsc3ccccc23)CC1 [Lurasidone] here?
A: Patient has decreased risk of weight gain if treated with atypical antipsychotics, including lurasidone (PMID 19636338,

Q: With CNCCC(Oc1ccc(C(F)(F)F)cc1)c1ccccc1 (stereo not drawn) [Fluoxetine] as the compound, how does the “depression improvement (Category)” value (genes affecting efficacy) read?
A: Depression may improve
